Results published in patent US20090326003A1, “PYRAZOLO (3, 4-B) PYRIDINE DERIVATIVES AS PDE4 INHIBITORS” (priority 2006, published 2009).

What was measured:
[1] = system: LPS-induced pulmonary neutrophilia; assay: LPS induced pulmonary neutrophilia in rats, intratracheally administered PDE4 inhibitors; type: in vivo; conditions: rat, intratracheal (i.t.) 2 hours prior to LPS challenge, wet suspension in saline/tween; for inhibition of the neutrophilia: dose not stated
Excerpt: This assay is an animal model of inflammation in the lung—specifically neutrophilia induced by lipopolysaccharide (LPS)— and allows the study of putative inhibition of such neutrophilia (anti-inflammatory effect) by intratracheally (i.t.) administered PDE4 inhibitors. The PDE4 inhibitors are preferably in dry powder or wet suspension form. I.t. administration is one model of inhaled administration, allowing topical delivery to the lung.
Animals: Male CD (Sprague Dawley Derived) rats supplied by Charles River, Raleigh, N.C., USA or Charles River, United Kingdom are housed in groups of 5 rats per cage, acclimatized after delivery for at least 5 days with bedding/nesting material regularly changed, fed on SDS diet R1 pelleted food given ad lib, and supplied with daily-changed pasteurized animal grade drinking water.
Device for wet suspension administration: This is similar to the above but a blunt dosing needle, whose forward end is slightly angled to the needle axis, is used, with a flexible plastic portex canula inserted into the needle.
Wet suspensions of the drug (aqueous) can be prepared by adding the required volume of vehicle to the drug; the vehicle used can for example be saline alone or a mixture of saline/tween (e.g. 0.2% tween 80). The wet suspension is usually sonicated for ca. 10 minutes prior to use.
Preparation, and dosing with PDE 4 inhibitor: Rats are anaesthetized by placing the animals in a sealed Perspex chamber and exposing them to a gaseous mixture of isoflurane (4.5%), nitrous oxide (3 litres.minute^−1) and oxygen (1 litre.minute^−1). Once anaesthetized, the animals are placed onto a stainless steel i.t. dosing support table. They are positioned on their back at approximately a 35° angle. A light is angled against the outside of the throat to highlight the trachea. […]
Neutrophil cell counts: The Bronchoalveolar lavage (BAL) samples are centrifuged at ca. 1300 rpm for ca. 7 minutes. […] The total cells are also counted from the resuspension. From these two counts, the total numbers of neutrophils in the BAL are determined. […]

[2] = system: TNF-α production in human PBMC (peripheral blood mononuclear cells); assay: Inhibition of TNF-alpha production in human PBMC (IGEN technology); type: cell-based; conditions: inhibition of LPS-stimulated TNF-α production in human PBMC; measured and/or mean; read-out: PBMC pIC50 (IGEN assay) (converted)
Description: Test compounds are prepared as a ca. 10 mM stock solution in DMSO and a dilution series prepared in DMSO with 8 successive 3fold dilutions, either directly from the 10 mM stock solution or from a more dilute solution in DMSO. The compound is added to assay plates using a Biomek Fx liquid handling robot.
PBMC cells (peripheral blood mononuclear cells) are prepared from heparinised human blood from normal volunteers by centrifugation on histopaque at ca. 1000 g for ca. 30 minutes. The cells are collected from the interface, washed by centrifugation (ca. 1300 g, ca. 10 minutes) and resuspended in assay buffer (RPMI 1640 containing 10% foetal calf serum, 1% L-glutamine and 1% penicillin/streptomycin) at 1×10^6 cells/ml. Ca. 50 μl (ca. 50 ul) of cells are added to microtitre wells containing ca. 0.5 or ca. 1.0 μl (ul) of an appropriately diluted compound solution. Ca. […]
The supernatant is removed and the concentrations of TNF-α are determined by electrochemiluminescence assay using the IGEN technology or by ELISA (see below).
Ca. […] 50 μl (ul) of streptavidin/biotinylated anti-TNF-α antibody mix, ca. 25 μl ruthenium tagged anti-TNF-α monoclonal and ca. 100 μl PBS containing 0.1% bovine serum albumin are added to each well and the plates are sealed and shaken for ca. 2 hours before being read on an IGEN instrument.

Row | Compound | inhibition of the neutrophilia [1] | IC50 [2] | ED50 for inhibition of neutrophilia [1]
1 | CCc1nc2c(cnn2CC)c(NC2CCOCC2)c1CNC(=O)c1ccc(C(=O)NCc2c(CC)nc3c(cnn3CC)c2NC2CCOCC2)o1 [Example 35, N,N′-bis{[1,6-diethyl-4-(tetrahydro-2H-pyran-4-ylamino)-1H-pyrazolo[3,4-b]pyridin-5-yl]methyl}-2,5furandicarboxamide] | about 43% | – | –
2 | CCn1ncc2c(NC3CCOCC3)c(CNC(=O)c3cccc(-c4cccc(C(=O)NCc5c(C)nc6c(cnn6CC)c5NC5CCOCC5)c4)c3)c(C)nc21 [Example 29, N,N′-bis{[1-ethyl-6-methyl-4-(tetrahydro-2H-pyran-4-ylamino)-1H-pyrazolo[3,4-b]pyridin-5-yl]methyl}-3,3′-biphenyldicarboxamide] | about 40% | – | –
3 | CCc1nc2c(cnn2CC)c(NC2CCOCC2)c1CNC(=O)c1ccc(-c2ccc(C(=O)NCc3c(CC)nc4c(cnn4CC)c3NC3CCOCC3)cc2)cc1 [Example 23, N,N′-bis{[1,6-diethyl-4-(tetrahydro-2H-pyran-4-ylamino)-1H-pyrazolo[3,4-b]pyridin-5-yl]methyl}-4,4′-biphenyldicarboxamide] | – | ~0.0501 nM | about 50 micrograms/kg body weight
